Test results reported in PMC9184620, “TAS1553, a small molecule subunit interaction inhibitor of ribonucleotide reductase, exhibits antitumor activity by causing DNA replication stress” (Communications Biology, 2022).

What was measured:
[1] = molecular target: T1, interaction between R1 and R2 (human RNR) (Homo sapiens, UniProt P23921); assay: AlphaLISA binding assay (interaction between His-R1 and GST-R2); conditions: recombinant R1 and R2; mean ± SD
T1 construct: host or cells: Escherichia coli (His-R1)
T1 sequence (P23921 1-792): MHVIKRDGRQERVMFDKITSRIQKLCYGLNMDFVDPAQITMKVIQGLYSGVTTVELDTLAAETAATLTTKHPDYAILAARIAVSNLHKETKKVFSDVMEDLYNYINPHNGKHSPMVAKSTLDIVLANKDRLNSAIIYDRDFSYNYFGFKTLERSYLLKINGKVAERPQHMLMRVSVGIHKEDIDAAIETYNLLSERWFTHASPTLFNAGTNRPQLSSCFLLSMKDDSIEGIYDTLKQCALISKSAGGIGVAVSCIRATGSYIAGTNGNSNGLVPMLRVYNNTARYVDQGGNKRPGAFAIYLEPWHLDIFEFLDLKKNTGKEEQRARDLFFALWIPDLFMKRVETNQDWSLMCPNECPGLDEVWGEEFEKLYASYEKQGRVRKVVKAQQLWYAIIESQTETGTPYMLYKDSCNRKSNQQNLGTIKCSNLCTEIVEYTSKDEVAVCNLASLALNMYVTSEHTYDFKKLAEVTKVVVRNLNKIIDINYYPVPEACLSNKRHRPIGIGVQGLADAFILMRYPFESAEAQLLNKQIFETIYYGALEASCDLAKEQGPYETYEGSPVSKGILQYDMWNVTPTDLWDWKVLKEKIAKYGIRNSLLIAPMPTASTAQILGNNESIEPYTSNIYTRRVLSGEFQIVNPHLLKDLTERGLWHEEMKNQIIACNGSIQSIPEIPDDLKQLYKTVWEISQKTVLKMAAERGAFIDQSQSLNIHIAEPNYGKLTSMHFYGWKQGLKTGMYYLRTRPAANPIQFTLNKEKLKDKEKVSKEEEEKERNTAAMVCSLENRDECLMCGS

human R1 = molecular target: T2, human R1 (Homo sapiens, UniProt P23921); assay: Surface plasmon resonance binding analysis; conditions: SPR, steady-state affinity, three independent experiments
T2 construct: made in house; host or cells: Escherichia coli
T2 sequence (P23921 1-792): T1 sequence (P23921 1-792)
Experimental: The binding affinity of TAS1553 to the R1 subunit was investigated using surface plasmon resonance (SPR) binding analysis. […] Next, we evaluated the inhibitory effect of TAS1553 against the enzymatic activity of RNR, consisting of R1 and R2 recombinant proteins. RNR activity was determined by its ability to reduce cytidine diphosphate (CDP) to deoxycytidine diphosphate (dCDP), based on a previous report. […] In addition to the inhibitory effect on RNR, TAS1553 was evaluated in a Eurofins LeadProfilingScreen panel assay including 68 proteins, such as ion channels, transporters, nuclear receptors, and G protein-coupled receptors, to examine its potential adverse activity.

HCC38 and MV-4-11 cells = assay: Immunoblotting of DNA replication stress and apoptosis markers; type: cell-based, human; conditions: both cell lines
Experimental: Because dATP is a critical metabolite for DNA replication, we next examined whether TAS1553 caused DNA replication stress. We evaluated phosphorylation of Chk1 at Ser345 in HCC38 and MV-4-11 cells by treating them with TAS1553 for 2 h. […] Because phosphorylated RPA2 at Thr21 binds to single-strand DNA at the stalled replication fork[42], TAS1553 may cause the replication fork stalling. To test this possibility, we analyzed the nuclear localization of phosphorylated RPA2 at Thr21.
Next, we examined the effect of TAS1553 on apoptosis induction in HCC38 and MV-4-11 cells. We treated TAS1553 at 1 or 10 µmol/L for 24 h and analyzed the time-dependent change of cleaved PARP and cleaved caspase-3 (Fig. 2g). Compared with control cells (0 h), phosphorylation of Chk1 at Ser345 was increased after 1 h of TAS1553 treatment at 1 and 10 μmol/L in both cell lines. Phosphorylation of RPA2 was also detected after 2 h of treatment with TAS1553 at 10 μmol/L. Following the induction of replication stress and fork stalling, cleaved PARP and cleaved caspase-3 levels were increased in both cell lines after 4 h of TAS1553 treatment at 10 μmol/L or after 8 h of treatment at 1 μmol/L.
Immunoblotting analysis was performed as reported previously. […] Proteins were separated by SDS-PAGE and analyzed by Western blotting. […] The signals were detected with the ImageQuant LAS 4010 (GE Healthcare UK Ltd.).

Cc1ccc(F)c([C@@H](C)[C@H](NS(=O)(=O)c2ccc(Cl)cc2C(N)=O)c2n[nH]c(=O)o2)c1C [TAS1553, 5-chloro-2-{N-[(1S,2R)-2-(6-fluoro-2,3-dimethylphenyl)-1-(5-oxo-4,5-dihydro-1,3,4-oxadiazol-2-yl)propyl]sulfamoyl}benzamide]
IC50 [1]: 39.6 ± 4.2 nM
Kd (human R1): 34.9 ± 0.9 nM
phosphorylation of Chk1 at Ser345 (HCC38 and MV-4-11 cells; 1 µmol/L, 2 h): markedly induced
cleaved PARP and cleaved caspase-3 levels (HCC38 and MV-4-11 cells; after 4 h at 10 μmol/L or 8 h at 1 μmol/L): increased
